# Experiments:
# 11β-HSD1 mRNA expression = 11β-HSD1 mRNA expression in cultured human dermal fibroblasts; format: cell-based; details: HDFs in culture; cortisol 24 h; IL-1β 10 ng/mL; cortisol 100 nM in combination
# HUVEC tubule formation = assay: HUVEC tubule formation, in vitro model of angiogenesis; format: cell-based, human; details: IL-1β 10 ng/ml; cortisone 200 nM; AZD4017 1 μM with cortisone; biological n=1
# 11β-HSD1 [1] = target: T1, 11β-HSD1 (Homo sapiens, UniProt P28845); assay: 11β-HSD1 activity (conversion of cortisone to cortisol) in primary human dermal fibroblasts; format: cell-based; design: from tissue; host or cells: adipose tissue of abdominally obese healthy adult male volunteers
# Protocol: FIG. 5: 11β-HSD1 activity in primary human dermal fibroblasts.
# In order to investigate the effects, prevalence and relevance of 11β-HSD1 in human skin and diabetic wound healing the effects of the proinflammatory cytokine, IL-1β on human dermal fibroblasts (HDFs) in culture was assessed in the preclinical setting. […] In these experiments RU486 (mifepristone) was used as a competitive cortisol antagonist.
# skin wounds [2] = assay: Phase II trial in T2DM: deep learning segmentation of OCT wound images; format: in vivo, human; details: day 30, 2 days after wounding at day 28, p<0.05
# Excerpt: FIG. 17: 2D OCT image of wound segmented into compartments. i) void; ii) intact tissue; iii) wound collagen; iv) wound with sponginess morphology; v) neoepidermis; vi) clot & vii) blood (in liquid form).
# FIG. 18: Figure illustrating the improved amount of A) neoepidermis and B) clot volume two days after wounding and after 30 days of treatment with AZD4017 (AZD) and placebo (PBO).
# To further understand the effects of AZD4017 in the wound healing process a deep learning based image processing method was developed for recognising different sub-tissue components from optical coherence tomography (OCT) images. The method was based on a u-net convolutional neural network (see Ronneberger O., Fischer P., Brox T. (2015) U-Net: Convolutional Networks for Biomedical Image Segmentation. In: Navab N., Hornegger J., Wells W., Frangi A. (eds) Medical Image Computing and Computer-Assisted Intervention—MICCAI 2015. MICCAI 2015. Lecture Notes in Computer Science, vol 9351. Springer, Cham. https://doi.org/10.1007/978-3-319-24574-4_28). […]
# Further morphological image processing was then performed to the labelled image as post processing processes to show meaningful continuous regions of sub-tissue components. As a result, the area (mm^2) of each sub-tissue components could be calculated. In addition the volume (mm^3) of each sub-tissue components across 120 slices of tissues were also determined. […]
# stratum corneum = assay: Phase II trial in T2DM: N tapes, tape stripping to a pre-specified TEWL; format: in vivo, human; details: after 4 weeks treatment
# Protocol: FIG. 16: The number of tapes (N tapes) required to achieve the equivalent amount of barrier disruption in the placebo (PBO) and AZD4017 (AZD) treated arms at day 28. Confidence intervals are presented to the right.
# A further way in which the skin quality of patients treated with AZD4017 was evaluated involved stripping of the skin with adhesive patches to achieve a consistent damage level as established by transepidermal water loss (TEWL), a measure of the permeability of the skin barrier.
# In more detail, evaporation of water from the skin occurs as part of normal skin metabolism. As barrier function is disrupted, water loss increases. The Tewameter® TM 300 probe (commercially available from Courage and Khazaka Electronic GmbH, 50829 Köln, Germany) measures the density gradient of the water evaporation from the skin by two pairs of sensors (temperature and relative humidity) inside a hollow cylinder. […]
# Adhesive patches (D-Squame® tapes, from D-Squame, Clinical and Derm LLC, Dallas, Tex., www.clinicalandderm.com) were used to gently remove the stratum corneum layers to a pre-specified TEWL (trans-epidermal water loss) rate from the lower inner forearm at Visits 1 and 4. […] At day, after 4 weeks treatment, the number of tapes required to induce the same level of damage on the skin as evaluated by this technique was 43% higher in the 11β-HSD1 inhibitor treated cohort than in the placebo arm.
# 11β-HSD1 [3] = target: T1, 11β-HSD1; details: abdominally obese healthy adult male volunteers, daily oral dosing
# Protocol: In more detail, a Phase I study using AZD4017 in abdominally obese healthy adult male volunteers involved an assessment of 11β-HSD1 inhibition in human adipose tissue as a function of time following daily oral dosing of the inhibitor (11β-HSD1 activity was assessed by an assay measuring the conversion of cortisone to cortisol in adipose tissue samples). […] Tachyphylaxis was also investigated with an additional AstraZeneca 11β-HSD1 inhibitor, AZD8329, from a different chemical series (see Morentin Gutierrez et al, Br J Pharmacol […], 172, 4806-16).
# FIG. 1: Conversion of ^3H cortisone [20 nM] to ^3H cortisol (%/100 mg adipose tissue) after repeated dosing of AZD4017.
# epidermis = assay: Phase II trial in T2DM: epidermal thickness by OCT; format: in vivo, human; details: day 35, 400 mg twice daily
# Protocol: FIG. 14: Epidermal thickness (μm) in the placebo (PBO) and AZD4017 (AZD) treated arms after 35 days.
# As noted above, glucocorticoid therapy is known to cause skin thinning and dispose patients to the development of chronic wounds. Epidermal thickness was measured by OCT at Visits 1 (day 0) and 6 (day 35, i.e. after 35 days of treatment with 400 mg AZD4017, twice daily). Results from these measurements are presented alongside the confidence interval in the measurements at day 35.
# 11β-HSD1 [4] = target: T1, 11β-HSD1; details: cited from earlier work
# [5] = Phase II trial in T2DM: adverse effects; format: in vivo, human; details: T2DM patients, 400 mg twice daily oral, 35 days
# Excerpt: AD4017 is thus identified for the first time as a safe and effective agent with therapeutic and prophylactic potential for the treatment of wound healing in patient populations susceptible to the development of chronic wounds and the complications associated therewith.
# skin wounds [6] = assay: Phase II trial in T2DM: wound gap diameter of punch biopsy wounds by OCT; format: in vivo, human
# Excerpt: FIG. 13: Wound healing in placebo (PBO) and AZD4017 (AZD) treated cohorts as evidenced by wound gap diameter of wounds inflicted at days 0 and 28 at days 2 and 30, respectively. Confidence intervals for measurements are provided to right.
# Both biopsies from visit 1 (day 0) and two biopsies from visit 4 (day 28) were imaged by OCT at Visits 2, 3, 5 and 6 as appropriate. Optical coherence tomography OCT (Greaves, N. S., et al., Br J Dermatol, 2014. 170(4): p. 840-50) has proven a useful tool for the evaluation of wound re-epithelialization. OCT uses light to capture sub-micrometre resolution, three-dimensional images from within biological tissue (e.g. skin). The method is based on low-coherence interferometry, typically employing near-infrared light. The use of relatively long wavelength light allows it to penetrate 1-2 mm into the tissue. In addition to wound diameter, collected images capture information on vascularization.
# The procedure takes approximately 2 minutes using a small probe applied to the skin. The procedure is non-invasive and pain-free. Image files (including enrolment number, visit number and date) were stored on the OCT machine until the end of the trial, then transferred to a secure server, compiled, analysed and values for wound diameter entered into the case report form (CRF).
# The initial wounds created by puncture at days 0 and 28, respectively, were 3 mm in diameter. Treatment with AZD4017 (400 mg, twice daily oral) was initiated on day 0 and maintained for 35 days.
# Thus administration of AZD4017 […] delivered a significant improvement in the rate of wound healing.
# [7] = tested on: fibroblasts and endothelial cell co-culture; assay: Angiogenesis co-culture assay with HDF conditioned media (tube length, branch points); format: cell-based, human; details: conditioned media of HDFs treated with IL-1β+200 nM cortisone+1 μM AZD4017, 7 days in culture
# Protocol: In order to further study the effects of AZD4017 on angiogenesis in a quantitative manner, a further related experiment to that described above was performed. In this model in vitro cultured human dermal fibroblasts were treated with a) 10 ng/ml IL-1β, b) IL-1β+100 nM cortisol, c) IL-1β+200 nM cortisone or d) IL-1β+cortisone+1 μM AZD4017 (selective 11β-HSD1 inhibitor).
# MMP7 and TGM2 expression = assay: Protein profiling (Sciomics) and RNAseq of primary human dermal fibroblasts; format: cell-based; details: HDFs, IL-1β+cortisone+AZD4017, n=3
# Excerpt: Protein profiling (Sciomics) conducted on primary human dermal fibroblasts (HDF) treated with vehicle, IL-1β, IL-1β+cortisone or IL-1β+cortisone+the selective 11β HSD1 inhibitor AZD4017 (n=3, same HDF as for RNAseq experiments) identified a number of proteins regulated by 11β-HSD1. […] The proteins found to be regulated by 11β-HSD1 include MMP7 and TGM2. […] Regulation of MMP7 by GC has to the best of our knowledge not previously been reported (Velasco, J., et al., J Biol Chem, 2011. 286(29): p. 26016-27).
# 11β-HSD = details: mice, topical treatment, oral corticosterone; cited from earlier work
# T1 sequence (P28845 whole entry): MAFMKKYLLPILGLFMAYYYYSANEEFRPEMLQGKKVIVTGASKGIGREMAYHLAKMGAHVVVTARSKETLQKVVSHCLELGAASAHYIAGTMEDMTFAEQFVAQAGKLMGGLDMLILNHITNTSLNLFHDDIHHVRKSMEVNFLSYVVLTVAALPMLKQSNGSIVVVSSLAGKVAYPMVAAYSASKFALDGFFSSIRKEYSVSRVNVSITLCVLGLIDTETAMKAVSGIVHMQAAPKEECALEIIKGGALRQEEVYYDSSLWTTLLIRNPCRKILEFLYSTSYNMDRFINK
compound,measurement,setting,value
"C[C@]12CCC(=O)C=C1CC[C@@H]1[C@@H]2[C@@H](O)C[C@@]2(C)[C@H]1CC[C@]2(O)C(=O)CO [cortisol, reference compound]",increase in 11β-HSD1 mRNA expression,11β-HSD1 mRNA expression,6 fold
IL-1β: interleukin 1β (pro-inflammatory cytokine),tubule formation,HUVEC tubule formation,stimulate tubule formation
same,increase in 11β-HSD1 mRNA expression,11β-HSD1 mRNA expression,10 fold
same,increase in conversion of cortisone (E) to cortisol (F) relative to untreated HDFs,"11β-HSD1 [1]; 24 h IL-1β pretreatment, conversion over 48 h",6 fold
"C[C@]12CCC(=O)C=C1CC[C@@H]1[C@@H]2C(=O)C[C@@]2(C)[C@H]1CC[C@]2(O)C(=O)CO [cortisone, reference compound]",tubule formation,HUVEC tubule formation,blocked
"CCCSc1nc(N2CCC[C@@H](CC(=O)O)C2)ccc1C(=O)NC1CCCCC1 [AZD4017, (S)-2-(1-(5-(cyclohexylcarbamoyl)-6-(propylthio)pyridin-2-yl)piperidin-3-yl)acetic acid]",volume of clots in the wound site compared to placebo,skin wounds [2],statistical significant increases
same,volume of neoepidermis in the wound site compared to placebo,skin wounds [2],statistical significant increases
same,"number of tapes required to induce the same level of damage, higher than in the placebo arm",stratum corneum,43%
same,11β-HSD1 activity in adipose tissue relative to baseline,11β-HSD1 [3]; day 1,reduced 11β-HSD1 activity relative to baseline
same,net 11β-HSD1 activity in adipose tissue post-dose versus baseline level on day 0,11β-HSD1 [3]; day 9 post dose,still greater than the baseline level on day 0
same,epidermal depth greater than the placebo arm,epidermis,5.58 μm
same,cortisol levels in the adipose tissues,"11β-HSD1 [4]; after 9 days dosing, versus before dosing",higher than those measured before dosing commenced
same,inhibition of 11β-HSD1 activity in adipose tissue,"11β-HSD1 [4]; after 9 days of treatment, as quoted from Freude",not observed after 9 days of treatment
same,inhibition of 11β-HSD1 activity in adipose tissue vs baseline,"11β-HSD1 [4]; after single doses, as quoted from Freude",50%
same,adverse effects in the treatment cohort,[5],no significant adverse effects
same,mean wound gap diameter,"skin wounds [6]; day 2, 3 mm wound inflicted at day 0, 400 mg twice daily oral from day 0",0.98 mm
same,improvement in the extent of healing relative to placebo arm,"skin wounds [6]; day 2, wound inflicted at day 0",35%
same,mean wound gap,"skin wounds [6]; day 30, 3 mm wound inflicted at day 28, after 4 weeks pretreatment",0.67 mm
same,improvement in the extent of healing relative to placebo arm,"skin wounds [6]; day 30, wound inflicted at day 28",55%
same,tubule formation,HUVEC tubule formation,the same IL-1β stimulated tubule formation as observed in the absence of cortisone
same,"IL-1β stimulated tube formation (tube length, number of branch points)",[7],decreased the negative effects of cortisone/cortisol
same,MMP7 protein and gene expression,MMP7 and TGM2 expression,downregulated MMP7
same,TGM2 protein and gene expression,MMP7 and TGM2 expression,stimulate TGM2 protein and gene expression
same,effect on 11β-HSD1 enzyme activity and production of F (cortisol),"11β-HSD1 [1]; 1 μM, over 18 h, HDFs pretreated with IL-1β and cortisol",completely blocked the enzyme activity
"CC1(C)[C@@H](OC(=O)CCC(=O)O)CC[C@]2(C)[C@H]3C(=O)C=C4[C@@H]5C[C@@](C)(C(=O)O)CC[C@]5(C)CC[C@@]4(C)[C@]3(C)CC[C@@H]12 [carbenoxolone, reference compound]",effect on delay in wound healing caused by corticosteroid excess,11β-HSD,reverse the delay in wound healing
same,inhibition of conversion of E to F,"11β-HSD1 [1]; 25 μM, 18 h, HDFs pretreated with IL-1β and cortisol",did not significantly inhibit

# From patent US11590119B2, “(S)-2-(1-(5-(cyclohexylcarbamoyl)-6-(propylthio)pyridin-2-yl)piperidin-3-yl)acetic acid for use in medicine” (University of Leeds, priority 2019, dated 2023)
